How the values were obtained:
Type in all cases: in vivo
[1] = tested on: Male ddy mice; experiment: Effect on hyperlocomotion induced by thyrotropin releasing hormone (TRH); details: for Activity counts (frequency per 60 min): Mean ± S.E.: 30 min before TRH 5 mg/kg i.p., control 1215 ± 114; for Effect on hyperlocomotion induced by TRH (in words): mice, s.c.
Protocol: Effect on hyperlocomotion induced by thyrotropin releasing hormone (TRH)
Male ddy mice (weighing 18 to 24.5 g) were used. The mice were placed into a transparent acrylic resin cage (26×37×11 cm) installed on Animex meter. Before experiment, the mice were allowed to habituate for 2 hours in the cage to fully lower the activity of the mice. After the completion of habituation, peptide A, peptide B or a diluent (physiological saline containing 1 mg/ml of sodium hydrogencarbonate) serving as a control was subcutaneously given to the mice. Thirty minutes thereafter, 5 mg/kg of TRH was intraperitoneally given to the animals. The activity counts during the period of 60 minutes following the administration of TRH was measured. Student's t-test was resorted to for statistical treatment.

[2] = tested on: Male ddy mice; experiment: Effect on climbing behavior induced by apomorphine (Pharmacological Test 2); parameters: key to Average: Mean ± S.E. (total of 7 scores), climbing behavior: sum of 7 scores; 0 = all four legs on floor, 2 = ≥3 legs on rods; details: for Average: Mean ± S.E. (total of 7 scores), climbing behavior: 30 min before apomorphine 0.75 mg/kg s.c., control 9.8 ± 0.7; for Effect on apomorphine-induced climbing behavior (in words): mice, s.c.
Protocol: Effect on climbing behavior induced by apomorphine
Male ddy mice (weighing 20 to 30 g) were used, with 10 mice in each group. Each mouse was placed into a cylindrical cage, 12 cm in diameter and 14 cm in height, made up of vertical rods of 2 mm in diameter spaced apart at a distance of 10 mm in a circular arrangement. The mouse was allowed to stand therein for 2 hours. Peptide A, peptide B, CCK-8 or, as a control, the above-mentioned diluent was subcutaneously given to the animal, and 30 minutes later, 0.75 mg/kg of apomorphine was subcutaneously given. […] The test was carried out in soundproof compartments.
0: All the four legs are on the floor.
2: At least three legs are on rods.
Student's t-test was resorted to for statistical treatment.

[3] = tested on: male Wister rats; experiment: Effect on metabolism of amine in the brain; details: 1 mg/kg s.c., 1 hour after administration
Protocol: Effect on metabolism of amine in the brain
Unfasted male Wister rats (weighing 180 to 220 g) were used. Peptide A or peptide B was subcutaneously given to the animal at a dose of 1 mg/kg, the head was irradiated with microwave 1 hour thereafter, and amine metabolite was extracted from the brain. First, removed tissues were homogenized with 1M formic acid and centrifuged at 20,000×g for 20 minutes, and the supernatant (1 ml) was shaken with 5 ml of ethyl acetate. The 3,4-dihydroxyphenylacetic acid (DOPAC), homovanillic acid (HVA) and 5-hydroxyindoleacetic acid (5-HIAA) in the ethyl acetate layer were analyzed by high-performance liquid chromatography under the following conditions. Chemcosorb, 5-ODS, 20 cm×4.6 mm I.D. was used for a separating column, and a mobile phase (0.1M KH2 PO4 (pH 5.0)-5 mM EDTA-2Na-5% acetonitrile) was passed through the colunn at a flow rate of 1 ml/min. The electrochemical detector was set to an oxidation potential of +0.8 V.

[4] = tested on: male Wister rats; experiment: Effect on yawning behavior induced by apomorphine; details: for Number of yawns (average): 30 min before apomorphine 0.03 mg/kg s.c., counted 30 min, control 4.5; for Effect on yawning behavior induced by apomorphine (in words): rats, s.c.
Protocol: Effect on yawning behavior
Male Wister rats (weighing 200 to 300 g) were used, with 10 rats in each group. The rat was placed into a plastics cage (17×24×12 cm) with a floor mat and was then habituated for 30 minutes. Peptide A, peptide B, CCK-8 or the above-mentioned diluent serving as a control was subcutaneously given to the animal. Thirty minutes thereafter, 0.03 mg/kg of apomorphine was subcutaneously given to the animal. The number of yawns induced by apomorphine was counted during a period of 30 minutes following administration of apomorphine. The test was conducted in a soundproof compartment for each animal. Wilcoxon rank-sum test was resorted to for statistical treatment.

Compound	Activity counts (frequency per 60 min): Mean ± S.E. ([1]; 0.1 mg/kg s.c.)	Activity counts (frequency per 60 min): Mean ± S.E. ([1]; 0.3 mg/kg s.c.)	Activity counts (frequency per 60 min): Mean ± S.E. ([1]; 1 mg/kg s.c.)	Effect on hyperlocomotion induced by TRH (in words) [1]	Average: Mean ± S.E. (total of 7 scores), climbing behavior ([2]; 0.01 mg/kg s.c.)	Average: Mean ± S.E. (total of 7 scores), climbing behavior ([2]; 0.03 mg/kg s.c.)	Average: Mean ± S.E. (total of 7 scores), climbing behavior ([2]; 0.1 mg/kg s.c.)	Average: Mean ± S.E. (total of 7 scores), climbing behavior ([2]; 0.3 mg/kg s.c.)	Average: Mean ± S.E. (total of 7 scores), climbing behavior ([2]; 1 mg/kg s.c.)	Effect on apomorphine-induced climbing behavior (in words) [2]	Increase of DOPAC content in hypothalamus [3]	Influence on content of metabolite (DOPAC, HVA, 5-HIAA) in frontal cortex, limbic forebrain and striatum [3]	Number of yawns (average) ([4]; 0.3 mg/kg s.c.)	Number of yawns (average) ([4]; 1 mg/kg s.c.)	Effect on yawning behavior induced by apomorphine (in words) [4]	Activity counts (frequency per 60 min): Mean ± S.E. ([1]; 0.03 mg/kg s.c.)
CSCC[C@H](NC(=O)[C@H](Cc1ccc(OS(=O)(=O)O)cc1)NC(=O)[C@H](CC(=O)O)NC(=O)CCCC(=O)O)C(=O)NCC(=O)N[C@@H](Cc1c[nH]c2ccccc12)C(=O)N[C@@H](CCSC)C(=O)N[C@@H](CC(=O)O)C(=O)N[C@@H](Cc1ccccc1)C(N)=O [Peptide A, Glt--Asp--Tyr(SO 3 H)--Met--Gly--Trp--Met--Asp--Phe--NH2]	936 ± 115 frequency per 60 min	613 ± 114 frequency per 60 min	148 ± 34 frequency per 60 min	inhibit the hyperlocomotion induced by TRH	8.6 ± 0.6	7.9 ± 0.6	5.3 ± 0.5	5.1 ± 0.7	4.5 ± 1.0	inhibit the climbing behavior	about 60%	Neither of peptide A and peptide B was found to influence	1.5	0	inhibit the yawning behavior induced by apomorphine	
CSCC[C@H](NC(=O)[C@H](Cc1ccc(OS(=O)(=O)O)cc1)NC(=O)[C@H](CC(=O)O)NC(=O)[C@@H]1CCC(=O)N1)C(=O)NCC(=O)N[C@@H](Cc1c[nH]c2ccccc12)C(=O)N[C@@H](CCSC)C(=O)N[C@@H](CC(=O)O)C(=O)N[C@@H](Cc1ccccc1)C(N)=O [Peptide B, pGlu--Asp--Tyr(SO3 H)--Met--Gly--Trp--Met--Asp--Phe--NH2]	601 ± 78 frequency per 60 min	626 ± 143 frequency per 60 min		inhibit the hyperlocomotion induced by TRH	8.7 ± 0.8		5.4 ± 0.8		4.7 ± 1.1	inhibit the climbing behavior	about 60%	Neither of peptide A and peptide B was found to influence		1.0	inhibit the yawning behavior induced by apomorphine	1009 ± 165 frequency per 60 min

Source: patent US4517180A, “Peptides, process for preparing the same and psychodepressant compositions containing the same” (Amano Pharmaceutical Co., Ltd, priority 1982, dated 1985)
